Data set [1] has as its system HCMV. Put plainly: Anti-HCMV cytopathogenicity test. Type of data set: cell-based, human cytomegalovirus. The note with it: read-out: HCMV EC50. On the procedure:
(§1) Anti-HCMV (Anti-Human Cytomegalovirus) Cytopathogenicity Tests The test compounds are employed as 50 millimolar (mM) solutions in dimethyl sulphoxide (DMSO). Ganciclovir®, Foscarnet® and Cidofovir® are used as reference compounds. After addition of in each case 2 μl of the 50, 5, 0.5 and 0.05 mM DMSO stock solutions to 98 μl portions of cell culture medium in row […] for duplicate determinations, 1:2 dilutions are carried out with 50 μl portions of medium up to row 11 of the 96-well plate. The wells in rows 1 and 12 each contain 50 μl of medium. In 150 μl of a suspension of 1×10^4 cells (human prepuce fibroblasts [NHDF]) are pipetted into each of the wells (row 1=cell control) and, in rows 2-12, a mixture of HCMV-infected and uninfected NHDF cells (M.O.I.=0.001-0.002), i.e. 1-2 infected cells per 1000 uninfected cells. Row 12 (without substance) serves as virus control. The final test concentrations are 250-0.0005 μM. The plates are incubated at 37° C./5% CO2 for 6 days, i.e. until all the cells are infected in the virus controls (100% cytopathogenic effect [CPE]). The wells are then fixed and stained by adding a mixture of formalin and Giemsa's dye (30 minutes), washed with double-distilled water and dried in a drying oven at 50° C. The plates are then assessed visually using an overhead microscope (Plaque Multiplier from Technomara). The following data can be acquired from the test plates: • CC50 (NHDF)=substance concentration in μM at which no visible cytostatic effects on the cells are evident by comparison with the untreated cell control; • EC50 (HCMV)=substance concentration in μM which inhibits the CPE (cytopathic effect) by 50% compared with the untreated virus control; • SI (selectivity index)=CC50 (NHDF)/EC50 (HCMV).
(In general: Protection from cytopathic effect is a common read-out in antiviral testing.)

Data set [2] can be described thus: Anti-HCMV cytopathogenicity test: cytostatic effects on NHDF cells. The note with it: NHDF cells (human prepuce fibroblasts), 6 days incubation, visual assessment, concentration at which no visible cytostatic effects are evident vs untreated cell control. The data set is classed as cell-based. How it is done:
as §1

[3] abbreviates: Human betaherpesvirus 5, 144 h, HCMV-infected NHDF cells, M.O.I. 0.001-0.002, 6 days, 50% inhibition of CPE vs untreated virus control.

Structures can show the parent of a compound that is named as a salt. Where two headings read alike, the source gives them in different places.

One may read the EC50 as the concentration needed to bring the measured effect to its halfway point. For orientation: CC50 means the concentration giving 50% cytotoxicity. Read a low CC50 as greater toxicity to the cells. Regarding `Cc1cc(N2CCN(C3=Nc4ccccc4C(CC(=O)O)N3c3cccc(C(F)(F)F)c3)CC2)ccc1F` (stereo not shown) [Example 1, {2-[4-(4-Fluoro-3-methylphenyl)-1-piperazinyl]-3-[3-(trifluoromethyl)phenyl]-3,4-dihydro-4-quinazolinyl}acetic acid], in data set [1] (setting [3]), the 50% effective concentration (EC50) came to 0.027 µM. In data set [2], this molecule had a half-maximal cytotoxic concentration (CC50) at 6 days of 17 µM.
Regarding `O=C(O)CC1c2ccccc2N=C(N2CCN(c3ccc(F)cc3)CC2)N1c1cc(C(F)(F)F)ccc1F` (stereo not shown) [Example 2, {2-[4-(4-Fluorophenyl)-1-piperazinyl]-3-[2-fluoro-5-(trifluoromethyl)phenyl]-3,4-dihydro-4-quinazolinyl}acetic acid hydrochloride], the EC50 in data set [1] (Human betaherpesvirus 5, NHDF, 144 h) stood at 0.06 µM. Also, the CC50 at 6 days in data set [2] was 39 µM.
Take `Cc1cc(Cl)ccc1N1C(N2CCN(c3cccc(Cl)c3)CC2)=Nc2ccccc2C1CC(=O)O` (stereo not shown) [Example 6, {2-[4-(3-Chlorophenyl)-1-piperazinyl]-3-[4-chloro-2-methylphenyl]-3,4-dihydro-4-quinazolinyl}acetic acid]: the half-maximal effective concentration (EC50) in data set [1] (setting [3]) came out at 0.4 µM. Further, the half-maximal cytotoxic concentration (CC50) at 6 days in data set [2] worked out at 22 µM.
On to `O=C(O)CC1c2ccccc2N=C(N2CCN(c3cccc(Cl)c3)CC2)N1c1ccc(F)c(Cl)c1` (stereo not shown) [Example 19], for which the concentration for a half-maximal effect (EC50) in data set [1] (setting [3]) amounted to 0.4 µM. The molecule also gave a CC50 at 6 days in data set [2] of 24 µM.
The like results for `COc1cccc(N2CCN(C3=Nc4ccccc4C(CC(=O)O)N3c3cccc(C#N)c3)CC2)c1` (stereo not shown) [Example 23] were, in that order, 0.76 µM and 188 µM.
As for `COc1ccc(C(F)(F)F)cc1N1C(N2CCN(c3cccc(Cl)c3)CC2)=Nc2ccccc2C1CC(=O)O` (stereo not shown) [Example 26, {2-[4-(3-Chlorophenyl)-1-piperazinyl]-3-[2-methoxy-5-(trifluoromethyl)phenyl]-3,4-dihydro-4-quinazolinyl)acetic acid], the EC50 in data set [1] (setting [3]) amounted to 0.019 µM. In addition, the CC50 at 6 days in data set [2] stood at 31 µM.
Taken in the same sequence, the figures for `COc1ccc(C(F)(F)F)cc1N1C(N2CCN(c3cccc(C)c3)CC2)=Nc2ccccc2C1CC(=O)O` (stereo not shown) [Example 27, {2-[4-(3-Methylphenyl)-1-piperazinyl]-3-[2-methoxy-5-(trifluoromethyl)phenyl]-3,4-dihydro-4-quinazolinyl}acetic acid] were 0.13 µM and 188 µM.
The like results for `COc1cccc(N2CCN(C3=Nc4ccccc4C(CC(=O)O)N3c3cc(Cl)ccc3OC)CC2)c1` (stereo not shown) [Example 28, {2-[4-(3-Methoxyphenyl)-1-piperazinyl]-3-[2-methoxy-5-chlorophenyl]-3,4-dihydro-4-quinazolinyl]acetic acid] were, in that order, 0.025 µM and 63 µM.
Taken in the same sequence, the figures for `COc1ccc(Cl)cc1N1C(N2CCN(c3ccc(F)cc3)CC2)=Nc2ccccc2C1CC(=O)O` (stereo not shown) [Example 29, {2-[4-(4-Fluorophenyl)-1-piperazinyl]-3-[2-methoxy-5-chlorophenyl]-3,4-dihydro-4-quinazolinyl}acetic acid] were 0.07 µM and 125 µM.
For `COc1ccc(C)cc1N1C(N2CCN(c3cccc(C)c3)CC2)=Nc2ccccc2C1CC(=O)O` (stereo not shown) [Example 30, {2-[4-(3-Methylpheny)-1-piperazinyl]-3-[2-methoxy-5-methylphenyl]-3,4-dihydro-4-quinazolinyl}acetic acid], the EC50 in data set [1] (setting [3]) was 0.25 µM. The same molecule returned a CC50 at 6 days in data set [2] of 250 µM.
Taken in the same sequence, the figures for `COc1ccc(C)cc1N1C(N2CCN(c3cccc(Cl)c3)CC2)=Nc2ccccc2C1CC(=O)O` (stereo not shown) [Example 31, {2-[4-(3-Chlorophenyl)-1-piperazinyl]-3-[2-methoxy-5-methylphenyl]-3,4-dihydro-4-quinazolinyl}acetic acid] were 0.14 µM and 63 µM.

For the origin of these results see patent US7960387B2, “2-(3-phenyl-2-piperazinyl-3,4-dihydroquinazolin-4-yl)acetic acids as antiviral agents, especially against cytomegaloviruses” (Bayer Schering Pharma Aktiengesellschaft, priority 2003, dated 2011).
